Laboratory results taken from patent US20040067923A1, “Use of biogenic estriol sulfamate prodrugs for treatment of autoimmune diseases” (priority 2002, published 2004).

How the values were obtained:
[1] = system: ovariectomised Wistar rats
Experimental: Adult Wistar rats (6 months old) were ovariectomised and orally treated with estriol-3-O-sulfamate, reference compound and vehicle, respectively. Effects of treatment on uterine weight after 28 days of treatment were determined.

[2] = system: ovariectomised Wistar rats; conditions: 28 days
Experimental: Adult Wistar rats (6 months old) were ovariectomised and orally treated with estriol-3-O-sulfamate, reference compound and vehicle, respectively. Effects on bone mineral density after 28 days of treatment were determined.

[3] = Head et al., 1998; cited from earlier work
[4] = 12 mg/day, Lindsay et al., 1979; cited from earlier work
[5] = Heithecker et al., 1991; cited from earlier work
[6] = ovariectomised Wistar rats, 28 days

Row | SMILES | systemic estrogen activity after oral application compared with estriol ([1]; conclusion based on Examples 1, 2 and 3) | oral dose to increase the uterine weight to basal level [1, 6] [μg/animal/day] | potency relative to estriol administered orally, uterine weight test ([1]; ovariectomised Wistar rats, oral) | uterine weight dose relative to dose showing osteoprotective effects (tissue selectivity) ([1]; ovariectomised Wistar rats, oral, 28 days) | oral dose at which the loss in bone mineral density could be nearly restored [2] [μg/animal/day] | oral amount needed to achieve comparable serum levels of estriol as after intravaginal application [3] | osteoprotective effects after oral administration [4] | half-life [5] [h] | bone sparing effect at doses used for oral application of estriol-3-sulfamate [2]
1 | C[C@]12CC[C@@H]3c4ccc(OS(N)(=O)=O)cc4CC[C@H]3[C@@H]1C[C@@H](O)[C@@H]2O [estriol-3-sulfamate] | much higher systemic estrogen activity | 100 | about 3 fold | ten times more | 10 | – | – | – | –
2 | C[C@]12CC[C@@H]3c4ccc(O)cc4CC[C@H]3[C@@H]1C[C@@H](O)[C@@H]2O [estriol] | – | 300 | – | – | – | ten times more | not able to show the osteoprotective effects | 1.5 to 5.3 | no bone sparing effect
